Several values for one entry are separate records, joined by “and”; a condition that tells them apart may be missing. Equal values may be shown once.
Columns and labels:
[1] = target: ALK WT (Homo sapiens, UniProt Q9UM73); assay: ALK enzymatic IC50, WT; format: biochemical
[2] = target: ALK L1196M (Homo sapiens, UniProt Q9UM73, L1196M); assay: ALK enzymatic IC50, L1196M; format: biochemical
Excerpt: (§1) Supplement 12916_2022_2646_MOESM1_ESM.docx, table 1 | column: ALK Enzymatic IC50 (nM)

[3] = target: ALK G1202R (Homo sapiens, UniProt Q9UM73, G1202R); assay: ALK enzymatic IC50, G1202R; format: biochemical
Excerpt: as §1

[4] = target: ALK G1269S (Homo sapiens, UniProt Q9UM73, G1269S); assay: ALK enzymatic IC50, G1269S; format: biochemical
Excerpt: as §1

[5] = target: ALK R1275Q (Homo sapiens, UniProt Q9UM73, R1275Q); assay: ALK enzymatic IC50, R1275Q; format: biochemical
Excerpt: as §1

[6] = system: FAK; set-up: method as in PMID 27638856; conditions: less potent than the inhibition to ALK; cited from earlier work
[7] = system: Pyk2; set-up: method as in PMID 27638856; conditions: less potent than the inhibition to ALK; cited from earlier work
[8] = system: xenograft models of ALK-positive NSCLC; conditions: crizotinib-sensitive and crizotinib-resistant tumors; cited from earlier work
[9] = system: ALK-positive NSCLC; assay: Phase 1 efficacy assessment (RECIST 1.1, investigator-assessed);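 also: tumours imaged by CT or MRI at baseline, after cycle 1, then every 8 weeks to cycle 29 and every 12 weeks until progression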
[10] = ALK TKI-naïve, 300 mg BID (n=6)
[11] = ALK TKI-naïve, 600 mg QD (n=12)
[12] = All patients, 300 mg BID (n=11)
[13] = Received crizotinib previously, 50 mg QD (n=1)
[14] = Received crizotinib previously, 200 mg QD (n=1)
[15] = Received crizotinib previously, 300 mg BID (n=5)
[16] = Received crizotinib previously, 300 mg QD (n=1)
[17] = Received crizotinib previously, 600 mg QD (n=6)
[18] = Received crizotinib previously, 800 mg QD (n=1)
[19] = waterfall plot, evaluable patients (n=60)

Work on `COc1cc(N2CCC(N3CCN(C)CC3)CC2)ccc1Nc1nc2c(c(Nc3ccccc3S(=O)(=O)NC(C)C)n1)CCN2` [Conteltinib] yielded an IC50 [1] of 1.5 nM, an IC50 [2] of 3.8 nM and an IC50 [3] of 6.3 nM. The IC50 [4] was 8.4 nM, the IC50 [5] was 1.2 nM and the FAK inhibition [6] was “inhibits”. For the same molecule, the Pyk2 inhibition [7] was “inhibits”, the “anti-tumor activity in xenograft models” value [8] was “marked anti-tumor activity” and the CR rate ([9]; 39 ALK TKI-naïve patients) was 2.6%. For the same molecule, the PR rate ([9]; 39 ALK TKI-naïve patients) was 61.5%, the “number of patients with objective response” value ([9]; 39 ALK TKI-naïve patients) was 25 patients and the “patients with tumor regression” value ([9]; 50/60 patients) was 83.3%. The “DCR (95% CI)” value ([9]; ALK TKI-naïve, 50 mg QD (n=1)) was 100.0% (2.5–100.0), the “ORR (95% CI)” value ([9]; ALK TKI-naïve, 50 mg QD (n=1)) was 100.0% (2.5–100.0) and the “DoR, Median (95% CI)” value ([9]; ALK TKI-naïve, 100 mg QD (n=6)) was 11.1 (5.61–15.0) months. The “PFS, Median (95% CI)” value ([9]; ALK TKI-naïve, 100 mg QD (n=6)) was 11.3 (2.75–15.9) months, the “DoR, Median (95% CI)” value ([9]; ALK TKI-naïve, 200 mg QD (n=2)) was 5.51 (NE–NE) months and the “ORR (95% CI)” value ([9]; ALK TKI-naïve, 200 mg QD (n=2)) was 50.0% (1.3–98.7). The “PFS, Median (95% CI)” value ([9]; ALK TKI-naïve, 200 mg QD (n=2)) was 5.89 (3.25–8.54) months, the “DoR, Median (95% CI)” value [9, 10] was 10.6 (1.80–10.6) months and the “PFS, Median (95% CI)” value [9, 10] was 17.8 (3.05–19.6) months. For the same molecule, the “DCR (95% CI)” value ([9]; ALK TKI-naïve, 300 mg QD (n=2)) was 100.0% (15.8–100.0), the “DoR, Median (95% CI)” value ([9]; ALK TKI-naïve, 300 mg QD (n=2)) was 17.4 (9.06–25.8) months and the “ORR (95% CI)” value ([9]; ALK TKI-naïve, 300 mg QD (n=2)) was 100.0% (15.8–100.0). For the same molecule, the “PFS, Median (95% CI)” value ([9]; ALK TKI-naïve, 300 mg QD (n=2)) was 19.5 (10.2–28.8) months, the “DoR, Median (95% CI)” value ([9]; ALK TKI-naïve, 450 mg QD (n=8)) was “NE (3.74–NE)” and the “PFS, Median (95% CI)” value ([9]; ALK TKI-naïve, 450 mg QD (n=8)) was “NE (4.63–NE)”. The “DoR, Median (95% CI)” value [9, 11] was 16.5 (1.80–32.8) months, the “PFS, Median (95% CI)” value [9, 11] was 19.3 (1.05–32.4) months and the “DCR (95% CI)” value ([9]; ALK TKI-naïve, 800 mg QD (n=2)) was 100.0% (15.8–100.0). The “DoR, Median (95% CI)” value ([9]; ALK TKI-naïve, 800 mg QD (n=2)) was 28.0 (NE–NE) months, the “ORR (95% CI)” value ([9]; ALK TKI-naïve, 800 mg QD (n=2)) was 50.0% (1.3–98.7) and the “PFS, Median (95% CI)” value ([9]; ALK TKI-naïve, 800 mg QD (n=2)) was 19.8 (10.3–29.2) months. For the same molecule, the “DoR, Median (95% CI)” value ([9]; ALK TKI-naïve, Total (n=39)) was 15.0 (9.06–25.8) months, the “PFS, Median (95% CI)” value ([9]; ALK TKI-naïve, Total (n=39)) was 15.9 (9.26–23.3) months and the “DCR (95% CI)” value ([9]; All patients, 50 mg QD (n=2)) was 50.0% (1.3–98.7). The “ORR (95% CI)” value ([9]; All patients, 50 mg QD (n=2)) was 50.0% (1.3–98.7), the “PFS, Median (95% CI)” value ([9]; All patients, 50 mg QD (n=2)) was “NE (1.21–NE)” and the “DoR, Median (95% CI)” value ([9]; All patients, 100 mg QD (n=7)) was 11.1 (5.61–15.0) months. The “PFS, Median (95% CI)” value ([9]; All patients, 100 mg QD (n=7)) was 8.57 (0.95–15.9) months, the “DCR (95% CI)” value ([9]; All patients, 200 mg QD (n=3)) was 33.3% (0.8–90.6) and the “DoR, Median (95% CI)” value ([9]; All patients, 200 mg QD (n=3)) was 5.51 (NE–NE) months. For the same molecule, the “ORR (95% CI)” value ([9]; All patients, 200 mg QD (n=3)) was 33.3% (0.8–90.6), the “PFS, Median (95% CI)” value ([9]; All patients, 200 mg QD (n=3)) was 3.25 (1.34–8.54) months and the “DoR, Median (95% CI)” value [9, 12] was 5.58 (1.80–10.6) months. The “PFS, Median (95% CI)” value [9, 12] was 7.68 (3.05–17.8) months, the “DCR (95% CI)” value ([9]; All patients, 300 mg QD (n=3)) was 100.0% (29.2–100.0) and the “DoR, Median (95% CI)” value ([9]; All patients, 300 mg QD (n=3)) was 17.4 (9.06–25.8) months. For the same molecule, the “ORR (95% CI)” value ([9]; All patients, 300 mg QD (n=3)) was 66.7% (9.4–99.2), the “PFS, Median (95% CI)” value ([9]; All patients, 300 mg QD (n=3)) was 10.2 (4.92–28.8) months and the “DoR, Median (95% CI)” value ([9]; All patients, 450 mg QD (n=13)) was “NE (3.74–NE)”. For the same molecule, the “PFS, Median (95% CI)” value ([9]; All patients, 450 mg QD (n=13)) was 26.9 (4.63–NE) months, the “DoR, Median (95% CI)” value ([9]; All patients, 600 mg QD (n=18)) was 15.6 (1.80–22.2) months and the “PFS, Median (95% CI)” value ([9]; All patients, 600 mg QD (n=18)) was 13.2 (4.69–23.0) months. The “DCR (95% CI)” value ([9]; All patients, 800 mg QD (n=3)) was 100.0% (29.2–100.0), the “DoR, Median (95% CI)” value ([9]; All patients, 800 mg QD (n=3)) was 17.3 (6.60–28.0) months and the “ORR (95% CI)” value ([9]; All patients, 800 mg QD (n=3)) was 66.7% (9.4–99.2). The “PFS, Median (95% CI)” value ([9]; All patients, 800 mg QD (n=3)) was 10.3 (7.72–29.2) months, the “DoR, Median (95% CI)” value ([9]; All patients, Total (n=60)) was 13.3 (6.60–22.2) months and the “PFS, Median (95% CI)” value ([9]; All patients, Total (n=60)) was 9.26 (6.73–15.7) months. For the same molecule, the “patients achieving CR” value ([9]; FAS, 60 patients) was 1.7%, the “patients achieving PR” value ([9]; FAS, 60 patients) was 51.7% and the “patients attaining SD” value ([9]; FAS, 60 patients) was 26.7%. The “patients experiencing PD” value ([9]; FAS, 60 patients) was 16.7%, the “DCR (95% CI)” value [9, 13] was 0.0% (0.0–97.5) and the “ORR (95% CI)” value [9, 13] was 0.0% (0.0–97.5). For the same molecule, the “PFS, Median (95% CI)” value [9, 13] was 1.21 (NE–NE) months, the “PFS, Median (95% CI)” value ([9]; Received crizotinib previously, 100 mg QD (n=1)) was 0.95 months and 0.95 (NE–NE) months and the “DCR (95% CI)” value [9, 14] was 0.0% (0.0–97.5). The “ORR (95% CI)” value [9, 14] was 0.0% (0.0–97.5), the “PFS, Median (95% CI)” value [9, 14] was 1.34 (NE–NE) months and the “DoR, Median (95% CI)” value [9, 15] was 5.58 (4.63–7.39) months. The “PFS, Median (95% CI)” value [9, 15] was 7.09 (4.73–8.54) months, the “DCR (95% CI)” value [9, 16] was 100.0% (54.1–100.0) and the “ORR (95% CI)” value [9, 16] was 0.0% (0.0–97.5). The “PFS, Median (95% CI)” value [9, 16] was 4.92 (NE–NE) months, the “PFS, Median (95% CI)” value ([9]; Received crizotinib previously, 450 mg QD (n=5)) was 8.34 (3.02–26.9) months and the “DoR, Median (95% CI)” value [9, 17] was 13.3 (3.77–16.5) months. For the same molecule, the “PFS, Median (95% CI)” value [9, 17] was 9.37 (4.69–17.7) months, the “DCR (95% CI)” value [9, 18] was 100.0% (2.5–100.0) and the “DoR, Median (95% CI)” value [9, 18] was 6.60 (NE–NE) months. For the same molecule, the “ORR (95% CI)” value [9, 18] was 100.0% (2.5–100.0), the “PFS, Median (95% CI)” value [9, 18] was 7.72 (NE–NE) months and the “tumor size changes relative to baseline” value ([9]; across all patients (n=60)) was −100 to 74%. For the same molecule, the “number of patients with CR” value [9, 19] was “One”, the “number of patients with PD” value [9, 19] was 10 patients and the “number of patients with PR” value [9, 19] was 31 patients.
